Experimental data from patent publication US20040086888A1, “Method for tandem genomic/proteomic analysis of proliferating cells” (priority 2003, published 2004).

How the values were obtained:
human breast tumor cells = assay: Hormonal therapy inhibition of cell proliferation (Example 6); format: cell-based
[1] = test system: human ovarian tumor cells; assay: Combination chemotherapy microtiter assay (Example 5); conditions: four tumor specimens
tumor cells in culture = assay: Microtiter well assay of drug/radiation interaction (FIGS. 8A-8C); format: cell-based; conditions: Taxol 8.5 ng/ml or 42.5 ng/ml + 2 Gy and 4 Gy versus radiation-only
Description: The microtiter well assay is ideally suited for examination of the interaction of chemotherapeutic agents and radiation. Issues such as the differential sensitivity of drug/radiation combinations and the timing of drug/radiation combinations may be directly addressed with this system.

[2] = test system: human brain tumor and human ovarian tumor cells; assay: Combined modality drug/radiation microtiter assay (Example 8); format: cell-based; conditions: Taxol 0.5-25.0 μM with 2 Gy, or Taxol 5 μM with 1 Gy-6 Gy; through five days post-treatment
Description: Twenty-four hours post-plating, cells in the microtiter plate wells were exposed to the chemotherapeutic agent Taxol. One set of plates was designed to have escalating Taxol doses with (0.5-25.0 μM) with a fixed radiation dose (2 Gy). A second set of plates was designed to have a fixed Taxol dose (5 μM) with an escalating radiation dose (1 Gy-6 Gy). The cells in the plates were irradiated using a Siemans Stabilipan X-ray machine operating at 250 kVp, 15 mA with a dose rate of 75 rad/min.
For each of the two treatment schema, cell number per well was monitored as a function of time through five days post-treatment. Cell number relative to controls was determined and survival curves were fit.

fibroblast cell line = assay: Immunoperoxidase staining for intermediate filaments; format: cell-based; conditions: immunoperoxidase technique, cells in culture
Description: (§1) The technique is practiced as follows. The same cell culturing and well distribution process is used as in the cytotoxicity assay described above, but rather than exposing the cells to chemotherapeutic or other agents, the cells are instead fixed and stained. With the stain or stain cocktail described below, the epithelial cells are identified by their intermediate filaments and/or specific membrane antigens by means of a monoclonal antibody immunoperoxidase technique. […] The fixed stained cells are then counted. If the specimen is positive for epithelial cells, the process is complete. If the specimen is negative for epithelial cells, an independent fixing and staining process is subsequently completed, with fresh cells from identical wells, using Vimentin as a stain to confirm the non-epithelial nature of the cells.
(§2) Many tumor specimens will contain a mixture of cancer and normal cells. Although in many cases tumor cells will readily grow in tissue culture while the normal cells will not, it is important to be able to distinguish the two cell types. Using immunoperoxidase techniques to stain cells for various intermediate filaments, the differences between normal (fibroblast-like) cells and cells from epithelial tumors were characterized. These techniques can also be used to identify other tumor cell characteristics which may have prognostic value. […]

[3] = test system: epithelial tumor cell lines; assay: as above; format: cell-based; conditions: immunoperoxidase technique, cells in culture
Description: as §1, §2

Molecule: CC/C(=C(\c1ccccc1)c1ccc(OCCN(C)C)cc1)c1ccccc1 [Tamoxifen]
- inhibition of cell proliferation (cell number relative to control) (human breast tumor cells; 10 nM to 20 μM, six doses, 24 h exposure, then 72 h incubation, four breast tumor specimens): two of the four breast specimens tested showed an inhibition of cell proliferation
- concentration range in which the responses occurred (human breast tumor cells; range tested 10 nM to 20 μM): mid-to-high

Molecule: CC(=O)O[C@H]1C(=O)[C@@]2(C)[C@H]([C@H](OC(=O)c3ccccc3)[C@]3(O)C[C@H](OC(=O)[C@H](O)[C@@H](NC(=O)c4ccccc4)c4ccccc4)C(C)=C1C3(C)C)[C@]1(OC(C)=O)CO[C@@H]1C[C@@H]2O [Taxol]
- cell number relative to control ([1]; escalating Taxol (1.0, 5.0, 25 μM) with fixed carboplatin (200 μM)): a dose response relationship was observed
- effect on radiation response (survival rates) (tumor cells in culture): enhancement of radiation response
- cell killing in combination with radiation (cell number relative to controls, survival curves) [2]: Both additive and synergistic cell killing were noted

Molecule: N.N.O=C([O-])C1(C(=O)[O-])CCC1.[Pt+2] [carboplatin]
- cell number relative to control ([1]; fixed Taxol (5 μM) with escalating carboplatin (50, 200, 1000 μM)): a dose response relationship was observed

Molecule: Vimentin
- staining of fibroblasts (fibroblast cell line): all fibroblast cells were positive
- staining of epithelial tumor cells [3]: mildly positive
